Results taken from US7022737B2, “Manipulating nitrosative stress to kill pathologic microbes, pathologic helminths and pathologically proliferating cells or to upregulate nitrosative stress defenses” (Duke University, priority 1996, dated 2006).
Where a name gives a salt, the structure may show the parent alone.

Key:
[1] = tested on: restenosis; assay: Patients with coronary stenosis treated to prevent restenosis; format: in vivo
Description: BSO therapy is continued for one week.
A person with blue eyes and gray hair presents with chest pain. […] The patient undergoes balloon angioplasty and placement of a Palmaz-Schatz stent, which is P^32-implanted and coated with a cyclodextran polymer to which BSO is attached by an ester linkage.
A patient similar to the one described above undergoes balloon angioplasty and placement of a Palmaz-Schatz stent which is coated with cyclodextran polymer to which ethyl maleate is attached by an ester linkage. […]
A person with restenosis six months post angioplasty has a Palmaz-Schatz stent placed. The stent is coated with a porous polymer containing 10% of the siderophore ferrioxamine B and 0.1% each of interleukin-1 and interferon-gamma. The latter agents induce the local expression of the inducible isoform of nitric oxide synthase. […]

[2] = tested on: E. coli; assay: Patients with E. coli septicemia; format: in vivo
Description: A person with fever, mild hypotension, and moderate hematuria has blood and urine cultures that are positive for E. coli. They are given a diagnosis of E. coli septicemia and urinary tract infection. […]
A person with E. coli sepsis presents feeling nauseated and gravely ill. However, their blood pressure is stable. They receive a standard regimen of IV antibiotics, including ampicillin and gentamicin as well as the siderophore ferrioxamine B at a dose of 10 mg/kg.
A person with E. coli sepsis presents with a blood pressure of 80/50 mm Hg. Broad spectrum antibiotics are initiated including ampicillin and gentamicin. […] The patient then receives an intravenous dose of nitrosated chloramphenicol, 12.5 mg four times/day IV together with methylene blue IV at a dose of 5 mg/kg as well as fluid support.

[3] = tested on: Histoplasma capsulatum
[4] = molecular target: T1, gamma-glutamylcysteinyl synthetase (gamma-GCS) (Rattus norvegicus, UniProt P19468); conditions: mammalian systems, literature; cited from earlier work
T1 sequence (P19468 1-637): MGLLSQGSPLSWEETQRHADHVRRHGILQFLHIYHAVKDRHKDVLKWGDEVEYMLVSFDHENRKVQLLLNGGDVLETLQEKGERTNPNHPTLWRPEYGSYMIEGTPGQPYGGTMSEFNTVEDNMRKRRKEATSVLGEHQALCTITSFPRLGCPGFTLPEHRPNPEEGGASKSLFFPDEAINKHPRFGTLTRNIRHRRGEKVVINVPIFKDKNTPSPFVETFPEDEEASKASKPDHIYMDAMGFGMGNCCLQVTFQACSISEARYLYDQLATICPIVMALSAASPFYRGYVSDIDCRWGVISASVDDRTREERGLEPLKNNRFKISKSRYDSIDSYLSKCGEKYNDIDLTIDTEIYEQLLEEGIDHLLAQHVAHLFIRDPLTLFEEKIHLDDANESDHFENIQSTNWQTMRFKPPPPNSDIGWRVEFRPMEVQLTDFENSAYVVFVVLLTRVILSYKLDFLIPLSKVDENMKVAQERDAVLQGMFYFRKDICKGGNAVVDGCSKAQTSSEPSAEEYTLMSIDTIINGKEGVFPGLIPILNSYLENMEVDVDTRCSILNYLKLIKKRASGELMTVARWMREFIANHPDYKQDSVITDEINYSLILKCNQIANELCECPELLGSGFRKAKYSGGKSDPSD
T1 sequence (P48508 1-274 partner): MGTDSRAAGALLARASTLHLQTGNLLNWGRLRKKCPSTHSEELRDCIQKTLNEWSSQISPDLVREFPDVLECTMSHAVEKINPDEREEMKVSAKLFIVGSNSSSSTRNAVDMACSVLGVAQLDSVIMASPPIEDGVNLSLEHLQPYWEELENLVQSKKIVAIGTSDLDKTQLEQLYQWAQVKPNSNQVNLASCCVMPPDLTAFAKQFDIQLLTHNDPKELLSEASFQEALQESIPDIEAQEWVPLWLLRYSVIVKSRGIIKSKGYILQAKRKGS

[5] = tested on: glutamine synthetase; conditions: mammalian systems, literature; cited from earlier work
[6] = tested on: wild type E. coli and glutathione deficient E. coli; assay: Bacterial growth (O.D. 600 nm) with nitrosating agent; format: cell-based
Description: In a first experiment, six runs were carried out. In three of the runs, wild type E. coli were incubated in bacterial growth medium. In the other three runs, E. coli lacking a gene essential for glutathione production (in particular, lacking a gene expressing gamma-glutamylcysteine synthetase, hereinafter glutathione deficient E. coli) were incubated in the bacterial growth medium. In one run, for each of the wild type E. coli and the glutathione deficient E. coli, no nitrosating agent was employed. In one run, for each of the wild type E. coli and the glutathione deficient E. coli, 0.5 mM S-nitrosocysteine (a nitrosating agent) was added after two hours. In one run, for each of the wild type E. coli and the glutathione deficient E. coli, 0.2 mM S-nitrosocysteine was added initially and 0.5 mM S-nitrosocysteine was added at the two hour mark. In each run, starting at the two hour mark and every 15 or 30 minutes thereafter, bacterial cell density (i.e., growth) was measured. […]
In a second experiment, six runs were carried out the same as in the first experiment. In this case, the results are shown in FIG. 2 where bacterial growth (measured as optical density (O.D.) 600 nm) is plotted on a log axis versus time (after two hours) and where “wt” and the plus and minus sign mean the same as in FIG. 1 and “gsh^−” means glutathione deficient E. coli. […]

[7] = tested on: benign prostatic hypertrophy; assay: Patients with benign prostatic hypertrophy; format: in vivo; conditions: prostate-implanted polymer pellets releasing each agent at 1 μmol/hr
Description: A person presents with a history of urinary hesitancy and multiple awakenings during the night. They are given a diagnosis of benign prostatic hypertrophy. Under stereotactic guidance, the patient's enlarged prostate gland is implanted with several porus polymer pellets designed to slowly release L-buthionine-S-sulfoximine (1 μmol/hr) and S-nitrosocysteine (1 μmol/hr). […] They then have nearly normal urine flow and usually wakes no more than once per night.
A similar patient with benign prostatic hypertrophy and very marked enlargement of their prostate is treated with NO-substituted finasteride (NO-substituted Proscar; 5 mg/day). NO-substitution is accomplished by replacement of the tert-butyl amine moiety of finasteride with S-nitroso-β-thio-tert-butyl amine.
A person with benign prostatic hypertrophy is treated with Finisteride (Proscar: 5 mg/day) and oral buthionine-S-sulfoximine at a dose of 10 mmol/kg four time/day.

[8] = tested on: restenosis; assay: Patients with coronary stenosis treated to prevent restenosis; format: in vivo; remark: listed apart in the source
[9] = tested on: Salmonella; assay: Patients with Salmonella septicemia or gastroenteritis; format: in vivo; conditions: septicemia; sodium nitrate 200 mg/kg i.v. twice a day and ethacrynic acid 50 mg four times a day p.o.
[10] = tested on: Mycobacterium tuberculosis; conditions: in vivo
[11] = tested on: mixed flora and gram-negativerods; assay: Diabetic patient with infected skin ulcer; format: in vivo; conditions: topical cream with S-nitrosoglutathione, oxidized glutathione and dinitrophenacyl glutathione
Description: A patient with diabetes develops a skin ulcer on the lower aspect of their left leg. Cultures grow mixed flora and gram-negativerods. A topical cream is applied that contains S-nitrosoglutathione, oxidized glutathione and the glutathione S-conjugate dinitrophenacyl glutathione.

[12] = tested on: oral thrush; assay: Patients with oral thrush; format: in vivo; conditions: 5 cc of 10 mM solution
Description: An immunocompromised person who is status-post recent chemotherapy develops oral thrush.
A person with leukemia develops oral thrush and is given 2 cc of 50 mM S-nitrosoglutathione, swish and spit, three times/day.
An immunocompromised person with HIV and a low CD4 count develops oral thrush. They are given 5 cc of a solution of 10 mM nitrate.

[13] = stent coated with porous polymer containing 10% ferrioxamine B and 0.1% each of interleukin-1 and interferon-gamma
[14] = 32P-implanted stent, S-nitrosocysteine and ethacrynic acid 50–200 mg twice a day p.o.

Compound: CC(=O)N([O-])CCCCCNC(=O)CCC(=O)N([O-])CCCCCNC(=O)CCC(=O)N([O-])CCCCCN.[Fe+3] [ferrioxamine B]
- clinical outcome [1, 13]: restenosis does not occur
- clinical outcome ([2]; 10 mg/kg with IV ampicillin and gentamicin): does not develop the clinical syndrome of hypotension and organ failure

Compound: C[C@@H]1[C@H](O)[C@@H](C)/C=C/C=C/C=C/C=C/C=C/C=C/C=C/[C@H](O[C@@H]2O[C@H](C)[C@@H](O)[C@H](N)[C@@H]2O)C[C@@H]2O[C@](O)(C[C@@H](O)C[C@@H](O)[C@H](O)CC[C@@H](O)C[C@@H](O)CC(=O)O[C@H]1C)C[C@H](O)[C@H]2C(=O)O [amphotericin B]
- adverse effects ([3]; 1 mg/day i.v., after one week): elevated blood urea nitrogen level and other evidence of renal failure
- clinical outcome ([3]; dose reduced to 0.5 mg/day): no resolution of disease

Compound: CCC(N)(CCS(C)(=N)=O)C(=O)O (racemic) [α-ethyl-DL-methionine-SR-sulfoximine]
- inhibition of gamma-GCS [4]: did not significantly inhibit
- inhibition of glutamine synthetase [5]: inhibited

Compound: interleukin-1
- clinical outcome [1, 13]: restenosis does not occur

Compound: N[C@@H](CSN=O)C(=O)O [S-nitrosocysteine]
- effect of pretreatment on later treatment ([6]; 0.2 mM pretreatment, 0.5 mM at two hours): Induces Resistance to Later Treatment with Nitrosating Agent
- bacterial growth ([6]; 0.5 mM added at two hours, with or without 0.2 mM pretreatment): reduces rate of bacterial growth
- clinical outcome [7]: symptoms improve over a period of three weeks
- clinical outcome [8, 14]: symptoms improve
- clinical outcome ([8]; BSO-releasing polymer stent and S-nitrosocysteine 100 nmol/kg intracoronary infusion): follow-up angiogram shows no restenosis
- clinical outcome ([8]; S-nitrosocysteine 100 nmol/kg six times a day for one week intracoronary, 32P-implanted stent): successfully prevents restenosis
- clinical outcome ([2]; 100 nmol/kg i.v. alone): partial remission in their disease accompanied by mild hypotension
- clinical outcome ([2]; S-nitrosocysteine continued plus desferoximine 1 gm then 0.5 gm every 4 hr for two days): relief of hypotension and complete resolution of septicemia

Compound: O=[N+]([O-])[O-].[Na+] [sodium nitrate]
- clinical outcome [9]: symptoms resolve in two days

Compound: N[C@@H](Cc1ccc(N(CCCl)CCCl)cc1)C(=O)O [melphalan]
- clinical outcome ([10]; po): symptoms resolve
- clinical outcome ([1]; stent coated with ONO-substituted polymer with 10% melphalan attached): clinical restenosis does not occur

Compound: CCC[S@](=N)(=O)CCC(N)C(=O)O (mixture of isomers) [DL-prothionine-SR-sulfoximine]
- inhibition of gamma-GCS [4]: inhibited
- inhibition of glutamine synthetase [5]: did not significantly inhibit

Compound: CN(C)c1ccc2nc3ccc(=[N+](C)C)cc-3sc2c1 [methylene blue]
- time to restored blood pressure ([2]; nitrosated chloramphenicol 12.5 mg four times/day IV with methylene blue IV 5 mg/kg and fluid support): 24 h

Compound: interferon-gamma: cytokine inducing inducible nitric oxide synthase
- clinical outcome [1, 13]: restenosis does not occur

Compound: C=C(CC)C(=O)c1ccc(OCC(=O)O)c(Cl)c1Cl [ethacrynic acid]
- clinical outcome [9]: symptoms resolve in two days
- clinical outcome [8, 14]: symptoms improve

Compound: CS(=N)(=O)CC[C@H](N)C(=O)O (stereo partly shown) [methionine sulfoximine]
- inhibition of gamma-GCS [4]: potently inhibits
- inhibition of glutamine synthetase [5]: potently inhibits

Compound: CC(C[C@H](N)C(=O)O)SN=O (stereo partly drawn) [S-nitroso-gamma-methyl-L-homocysteine]
- clinical outcome ([2]; septicemia and urinary tract infection, α-ethyl BSO 4 mmol/kg four times a day p.o., S-nitroso-gamma-methyl-L-homocysteine 50 μg/kg i.v., gentamicin): symptoms resolve and blood and urine cultures are negative for E. coli after two weeks

Compound: dinitrophenacyl glutathione
- clinical outcome [11]: culture of the ulcer becomes sterile over three days

Compound: O=[N+]([O-])O [nitrate]
- clinical outcome [12]: thrush resolves

Compound: CCOC(=O)/C=C\C(=O)OCC [ethyl maleate]
- clinical outcome ([1]; stent coated with cyclodextran polymer with ethyl maleate attached by ester linkage): clinical restenosis does not occur

Compound: CC[C@@H](CO)NCCN[C@@H](CC)CO [ethambutol]
- adverse effects [10]: loss of color vision and gastrointestinal intolerance
